The numbers were not newly measured in patent US9981058B2, “Balloon surface coating” (CARDIONOVUM Sp.z.o.o., priority 2011, dated 2018), which cites them from elsewhere.

Read-outs that look alike come from different tables or passages of the source.

Consider `CC(=O)O[C@H]1C(=O)[C@@]2(C)[C@H]([C@H](OC(=O)c3ccccc3)[C@]3(O)C[C@H](OC(=O)[C@H](O)[C@@H](NC(=O)c4ccccc4)c4ccccc4)C(C)=C1C3(C)C)[C@]1(OC(C)=O)CO[C@@H]1C[C@@H]2O` (relative stereo) [Paclitaxel, [2aR-[2a,4,4a,6,9(R*,S*),11, 12,12a,12b]]-(benzoylamino)-hydroxybenzene propionic acid 6,12b-bis-(acetyloxy)-12-(benzoyloxy)-2a-3,4,4a,5,6,9, 10, 11, 12, 12a,12b-dodecahydro-4, 11-dihydroxy-4a,8,13,13-tetramethyl-5-oxo-7,11-methano-1H-cyclodeca[3,4]benz[1,2-b]oxet-9-yl ester)], for which the Solubility result by setting is: (in dimethyl sulfoxide (DMSO), methanol and anhydrous ethanol) “highly soluble”; (in water) “comparatively poorly soluble”.
